Data as given in patent US8901129B2, “Methods of facilitating neural cell survival using GDNF family ligand (GFL) mimetics or RET signaling pathway activators” (GeneCode AS, priority 2009, dated 2014).

Tested on: GFRα3/RET-expressing reporter cell line
Experiment: Reporter-gene luciferase activity assay, dose-response (FIG. 5)
Assay type: cell-based, human
Conditions: GFRα3/RET cells; 1-50 μM, 24 h
Description: Full-length flag-tagged rat Gfrα1 cDNA (Leppänen et al., 2004) subcloned into in pcDNA3 (Invitrogen). Full-length human GFRα1 cDNA (Sidorova et al., unpublished) subcloned in pcDNA6 (Invitrogen). Full-length human GFRα3 cDNA (Wang et al., 2006). Full-length human RET (long isoform) (Runeberg-Roos et al., 2007) in pCR3.1 (Invitrogen). The MAPK activation detection system (Baloh et al., 2000) and PathDetect Elk-1 (Stratagene) both of which include two plasmids. First one constitutively expresses MAPK pathway specific fusion transactivator, that consists of activation domain of Elk-1 and DNA-binding domain of the yeast GAL4 protein (Gal4-Elk1). The other plasmid, Gal4-Luc, carries luciferase gene under the control of a synthetic promoter containing the yeast GAL4 binding sequences.
Cells were plated on 96-well plates (or 384-well) in cell density 20 000 (or 5 000 for 384-well format) cells per well in DMEM, 10% FBS, 100 μg/ml Normocin, 2 μg/ml puromycin, 500 μg/ml of G418, 15 mM HEPES, pH 7.2 one day before assay. The following day, the compounds were added to a final concentration of 1-50 μM. Structures of the compounds are shown in the description of FIG. 5, above. Cells were allowed to produce luciferase for 24 h, then lysed in 20 μl of 1×Cell culture lysis reagent (Promega) and freeze-thawed once to ensure complete lysis. Then 5 μl of the lysate was mixed (on ice) with 20 μl of luciferase assay substrate (Promega) in a well of black Isoplate (PerkinElmer). Luminescence was counted on MicroBeta 2 counter (PerkinElmer) twice. Data are presented as fold induction, where the corresponding concentration of DMSO was used as a reference.

SMILES	induction of luciferase expression
CCN(CC)S(=O)(=O)c1ccc(OC)c(N2CCN(C(=O)c3cc(F)ccc3C(F)(F)F)CC2)c1 [BT13]	in a dose-dependent manner induce luciferase expression
COc1ccc(S(=O)(=O)N2CCc3ccccc3C2)cc1N1CCN(C(=O)c2cc(F)ccc2C(F)(F)F)CC1 [BT16]	in a dose-dependent manner induce luciferase expression
